Earlier results in PMC10707982, “Solubility and Thermodynamics Data of Cabozantinib Malate in Various Aqueous Solutions of Dimethyl Sulfoxide at Different Temperatures” (Molecules, 2023).

Parameters: method as in doi:10.1016/j.molliq.2020.115146
Details: neat solvent; cited from earlier work

| SMILES | HSP of neat solvent (δ1, δ2) [MPa^1/2] |
| --- | --- |
| C[S+](C)[O-] [DMSO, dimethyl sulfoxide] | 23.60 |
| O [H2O, water] | 47.80 |
